Experimental data as given in patent EP0595557A1, “New substituted azetidinones as anti-inflammatory and antidegenerative agents” (MERCK & CO. INC., priority 1992, dated 1994).

The compounds below were run against T1, Human Polymorphonuclear Leukocyte Elastase (Homo sapiens, UniProt P08246) (assay: Enzyme assay for inhibition of human polymorphonuclear leukocyte elastase via hydrolysis of Boc-AAPAN or Boc-AAPVN). Conditions: pH 7.5, second order rate constant for inactivation of the enzyme, expressed to the nearest thousand, read-out: Kobs/[I].
T1 construct: Crude extract of human polymorphonuclear leukocytes (PMN) containing elastase activity; from tissue; host or cells: human polymorphonuclear leukocytes (crude extract)
T1 sequence (P08246 30-267): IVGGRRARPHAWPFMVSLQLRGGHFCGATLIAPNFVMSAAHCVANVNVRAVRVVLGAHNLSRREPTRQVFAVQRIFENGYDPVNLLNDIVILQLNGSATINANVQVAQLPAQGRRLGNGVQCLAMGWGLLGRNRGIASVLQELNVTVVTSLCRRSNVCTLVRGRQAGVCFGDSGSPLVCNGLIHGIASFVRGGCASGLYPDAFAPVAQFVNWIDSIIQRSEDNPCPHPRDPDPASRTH
Format: biochemical
Method: Enzyme Assays for the Inhibition of Human Polymorphonuclear Leukocyte Elastase Via Hydrolysis of N-t-Boc-alanyl-alanyl-prolylalanine-p-nitroanilide (Boc-AAPAN) or N-t-Boc-alanyl-prolylvaline-p-nitro-anilide (Boc-AAPVN) Reagent:
0.05M TES (N-tris[hydroxymethyl]methyl-2-mino-ethanesulfonic acid) Buffer, pH 7.5.
0.2 mM Boc-AAPAN or Boc-AAPVN.
To prepare substrate, the solid was first dissolved in 10.0 ml DMSO. Buffer at pH 7.5 was then added to a final volume of 100 ml.
Crude extract of human polymorphonuclear leukocytes (PMN) containing elastase activity.
Inhibitors (azetidinones) to be tested dissolved in DMSO just before use.
To 1.0 ml of 0.2 mM Boc-AAPAN in a cuvette, 0.01-0.1 ml of DMSO with or without inhibitor was added. After mixing, a measurement was taken at 410 mµ to detect any spontaneous hydrolysis due to presence of test compound. 0.05 Milliliters of PMN extract was then added and the ΔOD/min at 410 mµ was measured and recorded. Beckman model 35 spectrophotometer was used.
Results were expressed to the nearest thousand ^kobs/I which is the second order rate constant in per mole per second for inactivation of the enzyme.
The elastase activity in the crude PMN extract may vary from one preparation to another. A control of each new batch is run, and the volume added in the assay procedure is adjusted according to activity.

| Compound | kinact/KI [M⁻¹ s⁻¹] |
| --- | --- |
| CCC[C@@H](NC(=O)N1C(=O)C(CC)(CC)[C@@H]1Oc1ccc(C(=O)N(C)CCN(C)Cc2cccc3ccccc23)cc1)c1ccc(C)cc1 [Compound 158] | 1.08e+06 |
| CCC[C@@H](NC(=O)N1C(=O)C(CC)(CC)[C@@H]1Oc1ccc(C(=O)NCCc2nccn2Cc2ccccc2)cc1)c1ccc(C)cc1 [Compound 114] | 3.85e+06 |
| CCC[C@@H](NC(=O)N1C(=O)C(CC)(CC)[C@@H]1Oc1ccc(C(=O)NCC(=O)O)cc1)c1ccc(C)cc1 [Compound 74] | 1.43e+06 |
| CCC[C@@H](NC(=O)N1C(=O)C(CC)(CC)[C@@H]1Oc1ccc(C(=O)NCCN(CC)CC)cc1)c1ccc(C)cc1 [Compound 77] | 1.19e+06 |
| CCC[C@@H](NC(=O)N1C(=O)C(CC)(CC)[C@@H]1Oc1ccc(C(=O)NCCN2CCC(O)C2)cc1)c1ccc(C)cc1 (stereo partly shown) [Compound 131] | 1.11e+06 |
| CCC[C@@H](NC(=O)N1C(=O)C(CC)(CC)[C@@H]1Oc1ccc(C(=O)OC(C)CN(C)C)cc1)c1ccc(C)cc1 (stereo partly drawn) [Compound 13, 1-Dimethylamino-2-propyl [S-(R*,S*)]-4-[[3,3-diethyl-1-[[[1-(4-methyl-phenyl)butyl]amino]carbonyl]-4-oxo-2-azetidinyl]oxy]benzoate] | 2.47e+06 |
| CCC[C@@H](NC(=O)N1C(=O)C(CC)(CC)[C@@H]1Oc1ccc(C(=O)N2CC(C)NC(C)C2)cc1)c1ccc(C)cc1 (stereo partly shown) [Compound 146] | 1.52e+06 |
| CCC[C@@H](NC(=O)N1C(=O)C(CC)(CC)[C@@H]1Oc1ccc(C(=O)O[C@@H](C)C(=O)OCc2ccccc2)cc1)c1ccc(C)cc1 (relative stereo) [Compound 10, 1-Methyl-2-oxo-2-(phenylmethoxy)ethyl(2S-(1(S*),R*,(R)))-4-((3,3-diethyl-1-(((1-(4-methylphenyl)butyl)amino)carbonyl)-4-oxo-2-azetidinyl)oxy) benzoate] | 2.89e+06 |
| CCC[C@@H](NC(=O)N1C(=O)C(CC)(CC)[C@@H]1Oc1ccc(C(=O)N(C)CCN(CCOC)CCOC)cc1)c1ccc(C)cc1 [Compound 80] | 2.08e+06 |
| CCC[C@@H](NC(=O)N1C(=O)C(CC)(CC)[C@@H]1Oc1ccc(CC(=O)NCCc2ccncc2)cc1)c1ccc(C)cc1 [Compound 46] | 2.25e+06 |
| CCC[C@@H](NC(=O)N1C(=O)C(CC)(CC)[C@@H]1Oc1ccc(C(=O)Nc2cccc(Cl)c2)cc1)c1ccc(C)cc1 [Compound 135] | 201000 |
| CCC[C@@H](NC(=O)N1C(=O)C(CC)(CC)[C@@H]1Oc1ccc(C(=O)NC(C)CCCN(CC)CC)cc1)c1ccc(C)cc1 (stereo partly shown) [Compound 140] | 1.36e+06 |
| CCC[C@@H](NC(=O)N1C(=O)C(CC)(CC)[C@@H]1Oc1ccc(CC(=O)N(CCC)CCC)cc1)c1ccc(C)cc1 [Compound 59] | 1.14e+06 |
| CCC[C@@H](NC(=O)N1C(=O)C(CC)(CC)[C@@H]1Oc1ccc(C(=O)NCc2ccc(N(C)C)cc2)cc1)c1ccc(C)cc1 [Compound 110] | 5.6e+06 |
| CCC[C@@H](NC(=O)N1C(=O)C(CC)(CC)[C@@H]1Oc1ccc(C(=O)N(C)CCN2CCC(=O)CC2)cc1)c1ccc(C)cc1 [Compound 130] | 2.3e+06 |
| CCC[C@@H](NC(=O)N1C(=O)C(CC)(CC)[C@@H]1Oc1ccc(CC(=O)N(CCO)CCO)cc1)c1ccc(C)cc1 [Compound 40] | 1.24e+06 |
| CCC[C@@H](NC(=O)N1C(=O)C(CC)(CC)[C@@H]1Oc1ccc(C(=O)OCC(=O)N(C)C)cc1)c1ccc(C)cc1 (relative stereo) [Compound 6, 2-(dimethylamino)-2-oxoethyl, (S-(R*,S*))-4-((3,3-Diethyl-1-(((1-(4-methyl-phenyl)butyl)amino)carbonyl)-4-oxo-2-azetidinyl)oxy)-benzoate] | 3e+06 |
| CCC[C@@H](NC(=O)N1C(=O)C(CC)(CC)[C@@H]1Oc1ccc(C(=O)N(C)CCN2CCOCC2)cc1)c1ccc(C)cc1 [Compound 79] | 2.12e+06 |
| CCC[C@@H](NC(=O)N1C(=O)C(CC)(CC)[C@@H]1Oc1ccc(C(=O)N(C)CCN(C)C(C)=O)cc1)c1ccc(C)cc1 [Compound 105] | 2.4e+06 |
| C=CCN(CC=C)CCOC(=O)c1ccc(O[C@@H]2N(C(=O)N[C@H](CCC)c3ccc(C)cc3)C(=O)C2(CC)CC)cc1 [Compound 29, 2-(di-2-propenylamino)ethyl [S-(R*,S*)]-4-[[3,3-diethyl-1-[[[1-(4-methylphenyl)butyl]amino]carbonyl]-4-oxo-2-azetidinyl]oxy]benzoate] | 891000 |
| CCC[C@@H](NC(=O)N1C(=O)C(CC)(CC)[C@@H]1Oc1ccc(CC(=O)NCCN(C)C)cc1)c1ccc(C)cc1 [Compound 43] | 1.21e+06 |
| CCC[C@@H](NC(=O)N1C(=O)C(CC)(CC)[C@@H]1Oc1ccc(C(=O)N(C)CCCN(C)C)cc1)c1ccc(C)cc1 [Compound 83] | 1.8e+06 |
| CCC[C@@H](NC(=O)N1C(=O)C(CC)(CC)[C@@H]1Oc1ccc(C(=O)OCC(=O)N2CCC[C@H]2C(=O)NCc2ccccc2)cc1)c1ccc(C)cc1 [Compound 19, [S-(R*,S*)] 1-(((4-((3,3-diethyl-1-(((1-(4-methylphenyl)butyl)amino)carbonyl-4-oxo-2-azetidinyl)oxy)benzoyl)oxy)acetyl-N-benzyl-L-prolinamide] | 4.96e+06 |
| CCC[C@@H](NC(=O)N1C(=O)C(CC)(CC)[C@@H]1Oc1ccc(CC(=O)N(C)CCN(C)C)cc1)c1ccc2c(c1)OCO2 [Compound 259] | 2.52e+06 |
| CCC[C@@H](NC(=O)N1C(=O)C(CC)(CC)[C@@H]1Oc1ccc(C(=O)N(C)CCN2CCC(O)C2)cc1)c1ccc(C)cc1 (stereo partly shown) [Compound 138] | 960000 |
| CCC[C@@H](NC(=O)N1C(=O)C(CC)(CC)[C@@H]1Oc1ccc(C(=O)N(C)CCN(C)Cc2ccccn2)cc1)c1ccc(C)cc1 [Compound 150] | 2.16e+06 |
| CCCC(NC(=O)N1C(=O)C(CC)(CC)C1Oc1ccc(C(=O)NCC(=O)N2CCCC2C(=O)NCc2ccccc2)cc1)c1ccc(C)cc1 (stereo not shown) [Compound 102] | 2.75e+06 |
| CCC[C@@H](NC(=O)N1C(=O)C(CC)(CC)[C@@H]1Oc1ccc(C(=O)OCCN2CCN(C(C)=O)CC2)cc1)c1ccc(C)cc1 [Compound 27] | 3.26e+06 |

Further lines, results first:

| kinact/KI [M⁻¹ s⁻¹] | Compound |
| --- | --- |
| 905000 | CCC[C@@H](NC(=O)N1C(=O)C(CC)(CC)[C@@H]1Oc1ccc(C(=O)N(C)CCN(C)Cc2ccc(C(F)(F)F)cc2)cc1)c1ccc(C)cc1 [Compound 180] |
| 1.53e+06 | CCC[C@@H](NC(=O)N1C(=O)C(CC)(CC)[C@@H]1Oc1ccc(C(=O)N(C)CCN2CC(C)OC(C)C2)cc1)c1ccc(C)cc1 (stereo partly shown) [Compound 196] |
| 1.05e+06 | CCC[C@@H](NC(=O)N1C(=O)C(CC)(CC)[C@@H]1Oc1ccc(C(=O)N(C)CC(c2ccccc2)N(C)C)cc1)c1ccc(C)cc1 (stereo partly shown) [Compound 186] |
| 1.84e+06 | CCC[C@@H](NC(=O)N1C(=O)C(CC)(CC)[C@@H]1Oc1ccc(C(=O)N2CCN(C)CC2)cc1)c1ccc(OC)cc1 [Compound 298] |
| 548000 | CCC[C@@H](NC(=O)N1C(=O)C(CC)(CC)[C@@H]1Oc1ccc(C(=O)N(C)CCN(C)C)cc1)c1ccc(C(=O)N2CCOCC2)cc1 [Compound 277] |
| 334000 | CCC[C@@H](NC(=O)N1C(=O)C(CC)(CC)[C@@H]1Oc1ccc(CC(=O)N(CC)CC)cc1)c1cccc(C(=O)N2CCOCC2)c1 [Compound 267] |
| 3.26e+06 | CCCCN(C)C(=O)c1ccc(O[C@@H]2N(C(=O)N[C@H](CCC)c3ccc(CC)c(C(=O)N4CCOCC4)c3)C(=O)C2(CC)CC)cc1 [Compound 273] |
| 2.14e+06 | CCC[C@@H](NC(=O)N1C(=O)C(CC)(CC)[C@@H]1Oc1ccc(C(=O)N(C)CCN(C)Cc2ccc(F)cc2)cc1)c1ccc(C)cc1 [Compound 182] |
| 1.84e+06 | CCC[C@@H](NC(=O)N1C(=O)C(CC)(CC)[C@@H]1Oc1ccc(C(=O)N(C)Cc2ccccc2)cc1)c1ccc(C)cc1 [Compound 188] |
| 3.21e+06 | CCC[C@@H](NC(=O)N1C(=O)C(CC)(CC)[C@@H]1Oc1ccc(C(=O)N(CC)CC)cc1)c1ccc2c(c1)OCO2 [Compound 261] |
| 113000 | CCC[C@@H](NC(=O)N1C(=O)C(CC)(CC)[C@@H]1Oc1ccc(C(=O)N(C)CCN(C)C)cc1)c1ccc(C(=O)O)cc1 [Compound 287] |
| 2.45e+06 | CCC[C@@H](NC(=O)N1C(=O)C(CC)(CC)[C@@H]1Oc1ccc(C(=O)N2CCN(c3cccc(Cl)c3)CC2)cc1)c1ccc(C)cc1 [Compound 244] |
| 1.82e+06 | CCC[C@@H](NC(=O)N1C(=O)C(CC)(CC)[C@@H]1Oc1ccc(C(=O)N(C)CCN(C)Cc2ccco2)cc1)c1ccc(C)cc1 [Compound 163] |
| 1.78e+06 | CCC[C@@H](NC(=O)N1C(=O)C(CC)(CC)[C@@H]1Oc1ccc(CC(=O)N2CCOCC2)cc1)c1ccc2c(c1)OCO2 [Compound 258] |

Same assay, conditions: second order rate constant for inactivation of the enzyme, expressed to the nearest thousand; pH 7.5

| Kobs/[I] | Compound |
| --- | --- |
| 1,700,000 per mole per second | [S-(R*,S*)]-2-[4-[[(4-Methyl)piperazin-1-yl]carbonyl] phenoxy]-((3,3-diethyl-N-[1-(methylphenyl)butyl]-4-oxo-1-azetidinecarboxamide [Compound 242] |
